Measurements from ChEMBL document CHEMBL1122801, “Nontricyclic antidepressant agents derived from cis- and trans-1-amino-4-aryltetralins” (J Med Chem, 1984).
Counter-ions that a name gives are not always drawn.

Tests used:
[1] = molecular target: Norepinephrine transporter (Rattus norvegicus, UniProt Q9WTR4); test: Inhibition of norepinephrine uptake in synaptosomal preparation fro rat hypothalamus, using [3H]norepinephrine; format: functional, tissue-based
[2] = molecular target: Sodium-dependent dopamine transporter (Rattus norvegicus, UniProt P23977); test: Inhibition of dopamine uptake in synaptosomal preparation in rat corpus striatum, using [3H]dopamine; format: functional, tissue-based
Sequence of Sodium-dependent dopamine transporter (P23977 whole entry): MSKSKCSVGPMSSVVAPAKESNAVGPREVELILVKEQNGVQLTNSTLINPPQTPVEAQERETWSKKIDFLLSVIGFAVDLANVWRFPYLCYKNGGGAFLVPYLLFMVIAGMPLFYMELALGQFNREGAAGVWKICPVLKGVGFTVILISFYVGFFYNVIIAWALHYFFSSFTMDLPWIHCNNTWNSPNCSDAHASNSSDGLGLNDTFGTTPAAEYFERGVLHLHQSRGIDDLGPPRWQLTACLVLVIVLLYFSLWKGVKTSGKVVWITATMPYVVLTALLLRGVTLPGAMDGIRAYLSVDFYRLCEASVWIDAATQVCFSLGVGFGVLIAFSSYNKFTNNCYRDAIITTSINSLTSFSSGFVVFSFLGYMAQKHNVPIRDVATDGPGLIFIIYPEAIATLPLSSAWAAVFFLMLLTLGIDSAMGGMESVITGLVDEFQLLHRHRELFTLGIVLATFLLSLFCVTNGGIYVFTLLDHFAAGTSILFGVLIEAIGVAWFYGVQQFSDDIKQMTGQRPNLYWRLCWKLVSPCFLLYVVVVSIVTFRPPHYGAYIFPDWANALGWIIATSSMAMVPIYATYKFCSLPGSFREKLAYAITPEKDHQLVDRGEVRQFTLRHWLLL

Sequence of Norepinephrine transporter (Q9WTR4 whole entry): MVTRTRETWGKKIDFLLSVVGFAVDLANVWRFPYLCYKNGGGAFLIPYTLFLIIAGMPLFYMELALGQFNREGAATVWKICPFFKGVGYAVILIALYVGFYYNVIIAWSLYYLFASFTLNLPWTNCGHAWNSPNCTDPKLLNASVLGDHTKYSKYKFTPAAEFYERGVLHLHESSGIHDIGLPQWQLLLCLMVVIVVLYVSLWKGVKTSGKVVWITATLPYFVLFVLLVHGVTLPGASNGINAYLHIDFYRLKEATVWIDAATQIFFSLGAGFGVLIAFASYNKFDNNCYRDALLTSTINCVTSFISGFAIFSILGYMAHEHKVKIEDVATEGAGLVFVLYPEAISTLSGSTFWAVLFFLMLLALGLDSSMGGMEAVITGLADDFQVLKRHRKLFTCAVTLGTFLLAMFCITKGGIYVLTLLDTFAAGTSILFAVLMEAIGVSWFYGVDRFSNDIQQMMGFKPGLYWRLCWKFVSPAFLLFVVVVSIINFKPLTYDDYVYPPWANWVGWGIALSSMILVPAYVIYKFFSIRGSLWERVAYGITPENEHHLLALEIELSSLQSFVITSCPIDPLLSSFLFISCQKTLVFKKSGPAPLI

IC50 [2] [µM]	SMILES	IC50 [1] [nM]
7.8	CN[C@H]1CC[C@@H](c2ccc(C(F)(F)F)cc2)c2ccccc21	9800
–	CCCCOc1ccc([C@@H]2CC[C@H](NC)c3ccccc32)cc1	940
0.85	CN[C@H]1CC[C@@H](c2ccc(F)c(OC)c2)c2ccccc21	3300
6.2	CN[C@H]1CC[C@@H](c2ccc(Cl)c(C(F)(F)F)c2)c2ccccc21 (stereo in doubt; 60)	–
43	CN(C)C/C=C(/c1ccc(Br)cc1)c1cccnc1 [ZIMELDINE]	–
0.17	CN(C)[C@@H]1CC[C@@H](c2ccc(Cl)c(Cl)c2)c2ccccc21	–
6.1	CN[C@@H]1CC[C@@H](c2ccc(Cl)cc2Cl)c2ccccc21	–
45	COCCCC/C(=N\OCCN)c1ccc(C(F)(F)F)cc1 [FLUVOXAMINE]	1900
5.7	CN[C@@H]1CC[C@@H](c2ccccc2OC)c2ccccc21	480
6.4	CN[C@H]1CC[C@@H](c2ccc(C(F)(F)F)cc2)c2ccccc21 (stereo in doubt; 54)	9400
2	CN(C)[C@H]1CC[C@@H](c2ccc(Cl)c(Cl)c2)c2ccccc21	–
8.4	CN[C@@H]1CC[C@@H](c2ccc(Oc3ccccc3)cc2)c2ccccc21	2300
10	N[C@H]1CC[C@@H](c2ccc(C(F)(F)F)cc2)c2ccccc21	7500
1.25	N[C@H]1CC[C@@H](c2ccc(Cl)c(Cl)c2)c2ccccc21	250
1.2	CN[C@@H]1CC[C@@H](c2ccc(F)c(OC)c2)c2ccccc21	340
0.49	CN[C@H]1CC[C@@H](c2ccc(Cl)c(C(F)(F)F)c2)c2ccccc21 (stereo in doubt; 61)	–
1.5	CN[C@H]1CC[C@@H](c2ccc(Cl)c(C(F)(F)F)c2)c2ccccc21	–
5.6	CN[C@H]1CC[C@@H](c2ccc(C(F)(F)F)cc2)c2ccccc21 (stereo in doubt; 55)	12000
7.3	CN[C@@H]1CC[C@@H](c2ccc(Cl)c(C(F)(F)F)c2)c2ccccc21	–
–	CCCCOc1ccc([C@@H]2CC[C@@H](NC)c3ccccc32)cc1	1150
11.2	CN[C@H]1CC[C@@H](c2ccccc2OC)c2ccccc21	2300
5	CN[C@H]1CC[C@@H](c2cccc(OC)c2)c2ccccc21	1400
1.7	CN[C@H]1CC[C@@H](c2ccc(Cl)cc2Cl)c2ccccc21	–
–	CN1Cc2c(N)cccc2C(c2ccccc2)C1 (configuration not stated) [NOMIFENSINE]	20
0.53	CN[C@@H]1CC[C@@H](c2cccc(OC)c2)c2ccccc21	60
4.4	CN[C@@H]1CC[C@@H](c2ccc(C(F)(F)F)cc2)c2ccccc21	690
4.7	N[C@H]1CC[C@@H](c2cccc(C(F)(F)F)c2)c2ccccc21	3500
6.8	CN[C@H]1CC[C@@H](c2ccc(Oc3ccccc3)cc2)c2ccccc21	3900

SMILES	IC50 [2] [µM]	IC50 [1] [nM]
CN[C@H]1CC[C@@H](c2cccc(C(F)(F)F)c2)c2ccccc21	2.54	2550
CN[C@@H]1CC[C@@H](c2ccc(Br)cc2)c2ccccc21	0.08	30
CN(C)[C@@H]1CC[C@@H](c2ccc(C(F)(F)F)cc2)c2ccccc21	9.8	4700
CN[C@H]1CC[C@@H](c2cccc(C(F)(F)F)c2)c2ccccc21 (stereo in doubt; 56)	9.7	2700
CN[C@H]1CC[C@@H](c2ccccc2)c2ccccc21	5.1	1860
CN[C@@H]1CC[C@@H](c2ccccc2)c2ccccc21 (stereo in doubt; 44) [TAMETRALINE]	0.15	18
CN(C)[C@H]1CC[C@@H](c2ccc(Cl)cc2)c2ccccc21	5.6	1160
CN(C)[C@H]1CC[C@@H](c2cccc(C(F)(F)F)c2)c2ccccc21	7	890
CN[C@@H]1CC[C@@H](c2ccc(F)cc2)c2ccccc21	0.22	30
CN[C@@H]1CC[C@@H](c2ccc(OC)cc2)c2ccccc21	0.4	150
CN(C)[C@@H]1CC[C@@H](c2cccc(C(F)(F)F)c2)c2ccccc21	6.1	1400
CN[C@@H]1CC[C@@H](c2ccccc2)c2ccccc21 (stereo in doubt; 45) [TAMETRALINE]	1.4	370
CN[C@H]1CC[C@@H](c2ccccc2)c2ccccc21 (stereo in doubt; 50)	5.5	1800
CN[C@H]1CC[C@@H](c2ccccc2)c2ccccc21 (stereo in doubt; 51)	10.2	4200
CN(C)[C@H]1CC[C@@H](c2ccccc2)c2ccccc21	10	310
CN[C@H]1CC[C@@H](c2ccc(F)cc2)c2ccccc21	4.7	2300
CN[C@@H]1CC[C@@H](c2cccc(C(F)(F)F)c2)c2ccccc21	2.6	260
CN[C@H]1CC[C@@H](c2ccc(OC)cc2)c2ccccc21	4.2	3000
CN[C@H]1CC[C@@H](c2cccc(C(F)(F)F)c2)c2ccccc21 (stereo in doubt; 57)	2.5	7800
CN(C)[C@H]1CC[C@@H](c2ccc(C(F)(F)F)cc2)c2ccccc21	12.2	14200
CN(C)[C@@H]1CC[C@@H](c2ccc(Cl)cc2)c2ccccc21	0.38	130
CN(C)[C@@H]1CC[C@@H](c2ccccc2)c2ccccc21	0.84	140
CN[C@H]1CC[C@@H](c2ccc(Br)cc2)c2ccccc21	1.6	1400
CN[C@@H]1CC[C@@H](c2ccccc2)c2ccccc21 [TAMETRALINE HYDROCHLORIDE]	0.21	40
